Measurements published in the kinase profiling compilation of Christmann-Franck et al. (2016).

Key:
Test in all cases: KINOMEscan competition binding
Details in all cases: compound 10.0 µM
PIM1 (human) = PIM1 (human) (UniProt P11309)
HIPK1 (human) = HIPK1 (human) (UniProt Q86Z02)
[1] = test system: PIK3CA (human), P42336 [E545K]
DAPK2 (human) = DAPK2 (human) (UniProt Q9UIK4)
PIK3CG (human) = PIK3CG (human) (UniProt P48736)
PIM3 (human) = PIM3 (human) (UniProt Q86V86)
CSNK2A2 (human) = CSNK2A2 (human) (UniProt P19784)
ULK3 (human) = ULK3 (human) (UniProt Q6PHR2)
PIM2 (human) = PIM2 (human) (UniProt Q9P1W9)
MINK1 (human) = MINK1 (human) (UniProt Q8N4C8)
AKT2 (human) = AKT2 (human) (UniProt P31751)
CDK11A (human) = CDK11A (human) (UniProt Q9UQ88)
RPS6KA4 KD2 (human) = RPS6KA4 KD2 (human) (UniProt O75676)
PLK3 (human) = PLK3 (human) (UniProt Q9H4B4)
RPS6KA1 KD2 (human) = RPS6KA1 KD2 (human) (UniProt Q15418)
TTK (human) = TTK (human) (UniProt P33981)
RPS6KA2 KD2 (human) = RPS6KA2 KD2 (human) (UniProt Q15349)
PRKD1 (human) = PRKD1 (human) (UniProt Q15139)
[2] = test system: EIF2AK4 KD2 (human), Q9P2K8 [S808G]
RIOK2 (human) = RIOK2 (human) (UniProt Q9BVS4)
ULK2 (human) = ULK2 (human) (UniProt Q8IYT8)
DCLK2 (human) = DCLK2 (human) (UniProt Q8N568)
GAK (human) = GAK (human) (UniProt O14976)
PLK1 (human) = PLK1 (human) (UniProt P53350)
DCLK1 (human) = DCLK1 (human) (UniProt O15075)
PRKD2 (human) = PRKD2 (human) (UniProt Q9BZL6)
TSSK1B (human) = TSSK1B (human) (UniProt Q9BXA7)
RPS6KA6 KD2 (human) = RPS6KA6 KD2 (human) (UniProt Q9UK32)
CHEK1 (human) = CHEK1 (human) (UniProt O14757)
STK33 (human) = STK33 (human) (UniProt Q9BYT3)
MAP2K3 (human) = MAP2K3 (human) (UniProt P46734)
DAPK3 (human) = DAPK3 (human) (UniProt O43293)
LATS2 (human) = LATS2 (human) (UniProt Q9NRM7)
TLK2 (human) = TLK2 (human) (UniProt Q86UE8)
ANKK1 (human) = ANKK1 (human) (UniProt Q8NFD2)
PAK7 (human) = PAK7 (human) (UniProt Q9P286)
MAPK9 (human) = MAPK9 (human) (UniProt P45984)
TAOK3 (human) = TAOK3 (human) (UniProt Q9H2K8)
MAP2K6 (human) = MAP2K6 (human) (UniProt P52564)
MAPK10 (human) = MAPK10 (human) (UniProt P53779)
ULK1 (human) = ULK1 (human) (UniProt O75385)
MAPK8 (human) = MAPK8 (human) (UniProt P45983)
CSNK1G1 (human) = CSNK1G1 (human) (UniProt Q9HCP0)
TNIK (human) = TNIK (human) (UniProt Q9UKE5)
PIK3CB (human) = PIK3CB (human) (UniProt P42338)
CAMK2G (human) = CAMK2G (human) (UniProt Q13555)
MAPK14 (human) = MAPK14 (human) (UniProt Q16539)
STK38L (human) = STK38L (human) (UniProt Q9Y2H1)
TLK1 (human) = TLK1 (human) (UniProt Q9UKI8)
CAMK2A (human) = CAMK2A (human) (UniProt Q9UQM7)
ZAP70 (human) = ZAP70 (human) (UniProt P43403)
BMPR1B (human) = BMPR1B (human) (UniProt O00238)
SRPK1 (human) = SRPK1 (human) (UniProt Q96SB4)
EIF2AK2 (human) = EIF2AK2 (human) (UniProt P19525)
PLK4 (human) = PLK4 (human) (UniProt O00444)
AAK1 (human) = AAK1 (human) (UniProt Q2M2I8)
CDK16 (human) = CDK16 (human) (UniProt Q00536)
STK25 (human) = STK25 (human) (UniProt O00506)

PIM1 (human), sequence (P11309 whole entry, looked up): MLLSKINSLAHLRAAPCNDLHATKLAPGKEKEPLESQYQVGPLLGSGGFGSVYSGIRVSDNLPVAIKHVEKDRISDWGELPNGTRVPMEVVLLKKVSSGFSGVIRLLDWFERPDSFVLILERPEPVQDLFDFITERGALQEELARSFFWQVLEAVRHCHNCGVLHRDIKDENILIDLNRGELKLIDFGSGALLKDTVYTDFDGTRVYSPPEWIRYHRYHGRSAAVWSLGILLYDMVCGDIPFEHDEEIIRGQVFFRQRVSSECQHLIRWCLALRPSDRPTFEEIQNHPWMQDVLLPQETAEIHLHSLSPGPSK
RPS6KA6 KD2 (human), sequence (Q9UK32 whole entry, looked up): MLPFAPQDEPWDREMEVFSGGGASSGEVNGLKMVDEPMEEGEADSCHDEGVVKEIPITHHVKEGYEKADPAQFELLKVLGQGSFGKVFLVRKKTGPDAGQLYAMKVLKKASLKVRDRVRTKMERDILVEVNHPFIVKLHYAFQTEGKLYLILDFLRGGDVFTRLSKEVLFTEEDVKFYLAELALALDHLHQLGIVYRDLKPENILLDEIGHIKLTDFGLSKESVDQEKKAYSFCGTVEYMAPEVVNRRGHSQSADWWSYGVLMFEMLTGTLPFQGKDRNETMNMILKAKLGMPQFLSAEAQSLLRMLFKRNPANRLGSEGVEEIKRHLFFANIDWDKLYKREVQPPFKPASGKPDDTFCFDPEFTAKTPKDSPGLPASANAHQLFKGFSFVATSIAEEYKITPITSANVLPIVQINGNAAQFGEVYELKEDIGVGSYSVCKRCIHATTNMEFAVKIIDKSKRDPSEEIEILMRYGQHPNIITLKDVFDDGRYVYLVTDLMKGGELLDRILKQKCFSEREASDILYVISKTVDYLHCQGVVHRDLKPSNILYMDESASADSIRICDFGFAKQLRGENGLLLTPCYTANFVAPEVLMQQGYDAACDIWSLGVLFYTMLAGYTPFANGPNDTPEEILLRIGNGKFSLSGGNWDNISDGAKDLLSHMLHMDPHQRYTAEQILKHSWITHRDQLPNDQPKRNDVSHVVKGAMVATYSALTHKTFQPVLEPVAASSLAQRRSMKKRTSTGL
RPS6KA2 KD2 (human), sequence (Q15349 whole entry, looked up): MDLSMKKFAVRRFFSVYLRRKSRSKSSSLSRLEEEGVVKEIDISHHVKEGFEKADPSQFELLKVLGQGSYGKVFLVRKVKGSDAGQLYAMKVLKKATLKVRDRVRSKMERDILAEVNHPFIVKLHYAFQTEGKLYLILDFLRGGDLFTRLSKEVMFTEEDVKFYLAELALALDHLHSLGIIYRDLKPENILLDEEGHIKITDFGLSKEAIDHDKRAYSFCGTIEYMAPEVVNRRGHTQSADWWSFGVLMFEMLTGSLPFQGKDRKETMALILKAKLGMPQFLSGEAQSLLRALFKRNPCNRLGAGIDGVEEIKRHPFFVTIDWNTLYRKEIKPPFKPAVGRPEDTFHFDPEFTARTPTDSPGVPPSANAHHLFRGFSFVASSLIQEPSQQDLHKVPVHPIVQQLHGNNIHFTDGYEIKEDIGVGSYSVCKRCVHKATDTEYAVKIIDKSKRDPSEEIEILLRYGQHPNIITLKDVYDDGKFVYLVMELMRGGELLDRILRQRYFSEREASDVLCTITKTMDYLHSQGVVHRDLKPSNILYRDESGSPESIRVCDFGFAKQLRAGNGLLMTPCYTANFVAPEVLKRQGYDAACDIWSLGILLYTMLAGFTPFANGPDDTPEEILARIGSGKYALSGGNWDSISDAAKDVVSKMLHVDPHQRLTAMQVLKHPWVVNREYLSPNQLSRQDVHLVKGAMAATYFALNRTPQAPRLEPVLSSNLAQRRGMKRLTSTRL
ULK3 (human), sequence (Q6PHR2 whole entry, looked up): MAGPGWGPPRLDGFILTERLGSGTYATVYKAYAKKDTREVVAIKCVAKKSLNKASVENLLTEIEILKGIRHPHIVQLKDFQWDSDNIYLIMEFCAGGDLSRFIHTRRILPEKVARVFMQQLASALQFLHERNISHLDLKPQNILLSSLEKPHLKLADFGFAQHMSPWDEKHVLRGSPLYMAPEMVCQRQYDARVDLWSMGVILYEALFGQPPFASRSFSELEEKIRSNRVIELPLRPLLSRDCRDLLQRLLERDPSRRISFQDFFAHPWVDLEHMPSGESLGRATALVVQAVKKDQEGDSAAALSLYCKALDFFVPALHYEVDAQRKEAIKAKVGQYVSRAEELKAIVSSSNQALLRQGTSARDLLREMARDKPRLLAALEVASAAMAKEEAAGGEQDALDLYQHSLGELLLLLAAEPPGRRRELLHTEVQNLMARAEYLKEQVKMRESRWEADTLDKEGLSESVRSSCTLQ
GAK (human), sequence (O14976 whole entry, looked up): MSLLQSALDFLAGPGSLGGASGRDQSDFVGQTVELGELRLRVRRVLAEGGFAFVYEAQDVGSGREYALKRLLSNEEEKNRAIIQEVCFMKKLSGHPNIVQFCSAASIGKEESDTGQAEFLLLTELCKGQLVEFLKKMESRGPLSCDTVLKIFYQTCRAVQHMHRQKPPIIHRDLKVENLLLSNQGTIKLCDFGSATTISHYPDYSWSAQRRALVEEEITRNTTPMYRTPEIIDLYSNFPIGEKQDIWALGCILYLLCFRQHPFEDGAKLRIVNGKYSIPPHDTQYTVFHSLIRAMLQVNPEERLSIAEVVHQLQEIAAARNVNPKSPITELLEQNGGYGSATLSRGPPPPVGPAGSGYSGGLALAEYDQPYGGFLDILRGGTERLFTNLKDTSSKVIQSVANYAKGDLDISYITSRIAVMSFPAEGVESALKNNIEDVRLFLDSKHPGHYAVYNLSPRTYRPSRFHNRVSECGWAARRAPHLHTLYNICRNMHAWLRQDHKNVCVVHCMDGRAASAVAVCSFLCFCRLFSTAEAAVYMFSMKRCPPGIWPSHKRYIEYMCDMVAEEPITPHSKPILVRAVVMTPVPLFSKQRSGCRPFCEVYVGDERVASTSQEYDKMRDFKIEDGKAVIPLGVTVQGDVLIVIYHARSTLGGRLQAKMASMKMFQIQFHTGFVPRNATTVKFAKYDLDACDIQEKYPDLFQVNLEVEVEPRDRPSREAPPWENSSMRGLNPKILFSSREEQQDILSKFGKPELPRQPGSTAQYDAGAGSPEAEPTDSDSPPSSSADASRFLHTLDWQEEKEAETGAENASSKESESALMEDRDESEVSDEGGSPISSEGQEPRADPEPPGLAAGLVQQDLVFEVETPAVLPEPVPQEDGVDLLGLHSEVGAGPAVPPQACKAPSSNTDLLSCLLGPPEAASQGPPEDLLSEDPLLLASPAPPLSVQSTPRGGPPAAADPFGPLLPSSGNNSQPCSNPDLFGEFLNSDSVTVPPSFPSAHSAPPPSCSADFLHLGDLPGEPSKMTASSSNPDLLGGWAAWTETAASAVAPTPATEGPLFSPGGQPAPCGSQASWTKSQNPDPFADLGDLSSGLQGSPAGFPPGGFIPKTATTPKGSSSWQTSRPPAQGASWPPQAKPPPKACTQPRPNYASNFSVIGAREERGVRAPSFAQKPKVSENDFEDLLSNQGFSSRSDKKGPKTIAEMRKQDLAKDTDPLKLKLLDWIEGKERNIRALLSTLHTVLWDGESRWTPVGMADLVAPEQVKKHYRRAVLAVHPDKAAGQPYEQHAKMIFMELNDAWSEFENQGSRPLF
RPS6KA1 KD2 (human), sequence (Q15418 whole entry, looked up): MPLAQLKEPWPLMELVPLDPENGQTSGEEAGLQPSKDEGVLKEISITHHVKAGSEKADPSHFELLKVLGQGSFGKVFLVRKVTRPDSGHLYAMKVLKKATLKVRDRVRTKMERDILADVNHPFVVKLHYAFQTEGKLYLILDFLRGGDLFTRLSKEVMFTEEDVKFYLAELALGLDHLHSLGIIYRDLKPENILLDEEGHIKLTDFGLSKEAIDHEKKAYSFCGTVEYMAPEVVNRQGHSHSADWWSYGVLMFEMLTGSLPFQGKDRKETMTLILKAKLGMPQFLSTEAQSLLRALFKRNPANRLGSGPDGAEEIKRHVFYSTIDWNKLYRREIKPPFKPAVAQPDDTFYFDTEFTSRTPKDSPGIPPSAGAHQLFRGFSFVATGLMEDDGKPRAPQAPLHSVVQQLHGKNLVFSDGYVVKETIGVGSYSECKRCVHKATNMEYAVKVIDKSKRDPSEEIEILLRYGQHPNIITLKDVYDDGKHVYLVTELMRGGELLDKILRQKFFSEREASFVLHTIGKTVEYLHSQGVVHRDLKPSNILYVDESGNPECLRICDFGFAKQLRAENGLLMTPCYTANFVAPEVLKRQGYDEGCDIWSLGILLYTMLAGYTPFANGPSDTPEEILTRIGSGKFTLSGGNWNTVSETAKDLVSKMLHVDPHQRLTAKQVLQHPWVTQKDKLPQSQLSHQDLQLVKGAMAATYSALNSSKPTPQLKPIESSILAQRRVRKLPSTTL
RIOK2 (human), sequence (Q9BVS4 whole entry, looked up): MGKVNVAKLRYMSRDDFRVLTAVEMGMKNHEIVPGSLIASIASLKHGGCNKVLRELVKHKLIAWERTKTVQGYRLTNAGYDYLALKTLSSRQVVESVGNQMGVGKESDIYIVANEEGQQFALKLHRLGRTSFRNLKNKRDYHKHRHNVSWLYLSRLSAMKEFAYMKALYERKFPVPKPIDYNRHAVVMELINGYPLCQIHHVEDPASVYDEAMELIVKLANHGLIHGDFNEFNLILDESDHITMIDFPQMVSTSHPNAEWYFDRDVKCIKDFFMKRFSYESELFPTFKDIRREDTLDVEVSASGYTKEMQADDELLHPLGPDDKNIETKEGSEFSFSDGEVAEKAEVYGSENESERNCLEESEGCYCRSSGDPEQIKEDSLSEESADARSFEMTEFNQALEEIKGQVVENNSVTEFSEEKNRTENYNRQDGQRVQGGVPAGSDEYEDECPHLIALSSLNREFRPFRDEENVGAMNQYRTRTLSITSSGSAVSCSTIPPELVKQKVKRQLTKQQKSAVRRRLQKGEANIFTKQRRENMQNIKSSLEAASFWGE

`NS(=O)(=O)c1ccc(-c2cccc(/C=C3\SC(=O)NC3=O)c2)cc1` gave a kinase still bound, per cent of control (PIM1 (human)) of 4.2%, a kinase still bound, per cent of control (HIPK1 (human)) of 2.2% and a kinase still bound, per cent of control [1] of 16%. For the same molecule, the kinase still bound, per cent of control (DAPK2 (human)) was 26%, the kinase still bound, per cent of control (PIK3CG (human)) was 10% and the kinase still bound, per cent of control (PIM3 (human)) was 5.1%. The kinase still bound, per cent of control (CSNK2A2 (human)) was 4.2%, the kinase still bound, per cent of control (ULK3 (human)) was 18% and the kinase still bound, per cent of control (PIM2 (human)) was 1.4%. It also gave a kinase still bound, per cent of control (MINK1 (human)) of 30%.
For `O=C1NC(=O)C(=Cc2ccc(-c3ccc(F)cc3O)o2)C(=O)N1`, the kinase still bound, per cent of control (AKT2 (human)) was 17% and the kinase still bound, per cent of control (CDK11A (human)) was 31%.
In the case of `COc1cc(N2CCN(C)CC2)ccc1Nc1ncc2c(n1)N1CCC[C@H]1CC(=O)N2C`, the kinase still bound, per cent of control (RPS6KA4 KD2 (human)) is reported as 33%, the kinase still bound, per cent of control (PLK3 (human)) is reported as 3.6% and the kinase still bound, per cent of control (RPS6KA1 KD2 (human)) is reported as 28%. For the same molecule, the kinase still bound, per cent of control (TTK (human)) was 2.6%, the kinase still bound, per cent of control (RPS6KA2 KD2 (human)) was 9.4% and the kinase still bound, per cent of control (PRKD1 (human)) was 15%. For the same molecule, the kinase still bound, per cent of control [2] was 18%, the kinase still bound, per cent of control (RIOK2 (human)) was 0.2% and the kinase still bound, per cent of control (ULK2 (human)) was 19%. The kinase still bound, per cent of control (DCLK2 (human)) was 3.6%, the kinase still bound, per cent of control (GAK (human)) was 6.2% and the kinase still bound, per cent of control (PLK1 (human)) was 2.4%. The kinase still bound, per cent of control (DCLK1 (human)) was 0.75%, the kinase still bound, per cent of control (PRKD2 (human)) was 2.6% and the kinase still bound, per cent of control (TSSK1B (human)) was 23%. The kinase still bound, per cent of control (RPS6KA6 KD2 (human)) was 8.6%, the kinase still bound, per cent of control (CHEK1 (human)) was 16% and the kinase still bound, per cent of control (STK33 (human)) was 5%. It also gave a kinase still bound, per cent of control (MAP2K3 (human)) of 0.4% and a kinase still bound, per cent of control (DAPK3 (human)) of 28%.
Molecule `NS(=O)(=O)c1ccc(-c2ccc(/C=C3\SC(=S)N(CC(=O)O)C3=O)o2)cc1` has a kinase still bound, per cent of control (LATS2 (human)) of 25%, a kinase still bound, per cent of control (TLK2 (human)) of 25% and a kinase still bound, per cent of control (PIM1 (human)) of 33%. It also gave a kinase still bound, per cent of control (ANKK1 (human)) of 31%, a kinase still bound, per cent of control (PAK7 (human)) of 22% and a kinase still bound, per cent of control (MAPK9 (human)) of 21%. For the same molecule, the kinase still bound, per cent of control (TAOK3 (human)) was 34%, the kinase still bound, per cent of control (MAP2K6 (human)) was 32% and the kinase still bound, per cent of control (MAPK10 (human)) was 30%. It also gave a kinase still bound, per cent of control (ULK1 (human)) of 29%, a kinase still bound, per cent of control (MAPK8 (human)) of 22% and a kinase still bound, per cent of control (CSNK1G1 (human)) of 27%. The kinase still bound, per cent of control (TNIK (human)) was 32%, the kinase still bound, per cent of control (RPS6KA1 KD2 (human)) was 29% and the kinase still bound, per cent of control (PIK3CB (human)) was 29%. It also gave a kinase still bound, per cent of control (CAMK2G (human)) of 33%, a kinase still bound, per cent of control (MAPK14 (human)) of 20% and a kinase still bound, per cent of control (STK38L (human)) of 19%. The kinase still bound, per cent of control (RPS6KA2 KD2 (human)) was 22%, the kinase still bound, per cent of control (TLK1 (human)) was 22% and the kinase still bound, per cent of control (CAMK2A (human)) was 34%. The kinase still bound, per cent of control (ZAP70 (human)) was 21%, the kinase still bound, per cent of control (GAK (human)) was 20% and the kinase still bound, per cent of control (BMPR1B (human)) was 27%. For the same molecule, the kinase still bound, per cent of control (ULK3 (human)) was 26%, the kinase still bound, per cent of control (SRPK1 (human)) was 22% and the kinase still bound, per cent of control (EIF2AK2 (human)) was 32%. It also gave a kinase still bound, per cent of control (PLK4 (human)) of 0.35%, a kinase still bound, per cent of control (MINK1 (human)) of 23% and a kinase still bound, per cent of control (RPS6KA6 KD2 (human)) of 32%. It also gave a kinase still bound, per cent of control (AAK1 (human)) of 34%, a kinase still bound, per cent of control (CDK16 (human)) of 0.35% and a kinase still bound, per cent of control (STK25 (human)) of 34%.
